Measurements published in patent publication US7659305B2, “Therapeutic proline derivatives” (Pfizer Inc., priority 2002, dated 2010).
Structures can show the parent of a compound that is named as a salt.

Target: T1, α2δ subunit derived from porcine brain tissue (Sus scrofa, UniProt A0A287BIN3)
T1 construct: the α2δ subunit derived from porcine brain tissue; from tissue; host or cells: porcine brain tissue
Assay: radioligand binding assay using [3H]gabapentin
Settings: [3H]gabapentin binding
Description: The biological activity of the alpha-2-delta ligands of the invention may be measured in a radioligand binding assay using [^3H]gabapentin and the α2δ subunit derived from porcine brain tissue (Gee N. S., Brown J. P., Dissanayake V. U. K., Offord J., Thurlow R., Woodruff G. N., J. Biol. Chem., 1996;271:5879-[…]). Results may be expressed in terms of μM or nM α2δ binding affinity.

T1 sequence (A0A287BIN3 25-1109): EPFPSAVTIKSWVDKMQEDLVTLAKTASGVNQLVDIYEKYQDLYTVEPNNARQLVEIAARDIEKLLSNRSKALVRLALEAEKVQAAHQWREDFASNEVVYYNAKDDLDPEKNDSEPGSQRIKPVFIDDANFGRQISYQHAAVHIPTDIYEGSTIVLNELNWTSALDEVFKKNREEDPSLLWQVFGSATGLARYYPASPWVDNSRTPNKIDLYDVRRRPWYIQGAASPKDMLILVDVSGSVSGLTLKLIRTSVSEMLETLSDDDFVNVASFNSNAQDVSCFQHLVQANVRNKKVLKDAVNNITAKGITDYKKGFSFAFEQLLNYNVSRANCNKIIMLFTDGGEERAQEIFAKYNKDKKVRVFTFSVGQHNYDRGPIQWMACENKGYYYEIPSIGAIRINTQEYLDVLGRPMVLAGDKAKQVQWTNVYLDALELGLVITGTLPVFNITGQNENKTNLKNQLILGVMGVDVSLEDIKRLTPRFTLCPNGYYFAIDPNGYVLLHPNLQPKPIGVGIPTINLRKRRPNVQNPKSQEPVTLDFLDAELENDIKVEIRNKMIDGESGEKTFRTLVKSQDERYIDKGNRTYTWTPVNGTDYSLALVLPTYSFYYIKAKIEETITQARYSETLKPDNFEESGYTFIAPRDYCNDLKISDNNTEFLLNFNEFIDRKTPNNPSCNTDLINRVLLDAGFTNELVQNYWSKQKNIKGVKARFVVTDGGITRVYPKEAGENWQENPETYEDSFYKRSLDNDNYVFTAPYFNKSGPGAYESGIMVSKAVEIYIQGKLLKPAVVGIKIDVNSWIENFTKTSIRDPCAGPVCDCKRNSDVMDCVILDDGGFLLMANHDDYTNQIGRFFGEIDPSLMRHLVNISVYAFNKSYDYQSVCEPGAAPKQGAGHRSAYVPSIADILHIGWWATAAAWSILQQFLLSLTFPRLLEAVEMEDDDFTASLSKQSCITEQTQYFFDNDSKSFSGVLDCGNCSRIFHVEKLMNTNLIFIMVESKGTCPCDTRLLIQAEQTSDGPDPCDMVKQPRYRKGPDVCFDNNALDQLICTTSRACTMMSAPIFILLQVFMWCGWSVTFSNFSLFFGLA

| IC50 [nM] | Compound |
| --- | --- |
| 72 | O=C(O)[C@@H]1C[C@H](Sc2ccccc2)CN1 [Example 4, (2S,4S)-4-phenylthio-pyrrolidine-2-carboxylic acid] |
| 11 | O=C(O)[C@@H]1C[C@H](Cc2cccc(F)c2)CN1 [Example 10, (2S,4S)-4-(3-Fluoro-benzyl)-pyrrolidine-2-carboxylic acid mono hydrochloride salt] |
| 5 | O=C(O)[C@@H]1C[C@H](Oc2cccc(Cl)c2)CN1 [Example 8, (2S,4S)-4-(3-Chloro-phenoxy)-pyrrolidine-2-carboxylic acid] |
| 9 | COc1cccc(C[C@@H]2CN[C@H](C(=O)O)C2)c1 [Example 14, (2S,4S)-4-(3-Methoxy-benzyl)-pyrrolidine-2-carboxylic acid mono hydrochloride salt] |
| 210 | O=C(O)[C@@H]1C[C@H](Oc2ccc3ccncc3c2)CN1 [Example 7] |
| 119 | O=C(O)[C@@H]1C[C@H](OCc2ccc(Cl)cc2)CN1 [Example 2, (2S,4S)-4-[(4-chlorobenzyl)oxyl]-pyrrolidine-2-carboxylic acid] |
| 7 | O=C(O)[C@@H]1C[C@H](Cc2cc(F)ccc2F)CN1 [Example 12, (2S,4S)-4-(2,5-Difluoro-benzyl)-pyrrolidine-2-carboxylic acid mono hydrochloride salt] |
| 15 | O=C(O)[C@@H]1C[C@H](Cc2cccc(F)c2F)CN1 [Example 11, (2S,4S)-4-(2.3-Difluoro-benzyl)-pyrrolidine-2-carboxylic acid mono-hydrochloride salt] |
